Source: patent US11950925B2, “Managing fluid levels in a patient and associated devices, systems, and methods” (REPRIEVE CARDIOVASCULAR, INC., priority 2019, dated 2024)
Where “and” joins values, the source holds several entries; their conditions need not be identical. Equal entries are not always repeated.

Tests used:
[1] = Fluid overload therapy with diuretic (Lasix) and hydration fluid via the Reprieve Cardiovascular Second Generation System: diuresis, fluid, sodium and weight outcomes; format: in vivo, human
Experimental: (§1) Clinical data associated with embodiments of the present technology were obtained from patient tests conducted at the Tbilisi Heart and Vascular Center in Tbilisi, Georgia. 15 patients underwent fluid therapy in which diuretic(s) and hydration fluid were administered via the Reprieve Cardiovascular™ Second Generation System according to the methods described herein (“treatment group”). As described below, data obtained from the tests indicate that the net fluid loss and net sodium loss levels achieved represent a significant improvement over conventional methods for treating fluid overload conditions, and generally indicate that embodiments of the present technology produce improved diuresis and renal safety.
Table 1 below indicates total urine output, net fluid loss (not including intake fluid), net fluid loss (including intake fluid), net sodium balance, and average diuretic (Lasix) dosage rate for each patient in the treatment group, as measured across a therapy timespan. […] Additionally, the average therapy timespan for the treatment group was 31 hours, whereas the average therapy timespan for standard of care therapy in the literature is approximately 5 days. […] Over the 30 days, none of the patients in the treatment group regained the weight that lost during therapy or were readmitted for additional treatment.
As also shown in Table 1, the average net sodium balance for all patients in the treatment group decreased by nearly 800 millimoles (mmol) over the therapy timespan. When normalized over a 24-hour period, the average and median net sodium balance was −14 grams (g) and −15 g respectively.

[2] = human, in vivo
Experimental: as §1
Estimated glomerular filtration rate (eGFR) is a measure of kidney function and stage of kidney disease, and is based on patient factors including blood creatinine and a patient's age, body size, and gender.
Blood pressure measurements of the patients in the treatment group serve as another indication that the fluid therapy was well received by the patients. For example, the average mean arterial pressure (MAP) of patients dropped from 90.1 mmHg to 88.2 mmHg at the time of patient discharge, and then to 87.2 mmHg after 30 days. Additionally, average systolic pressure of the patients dropped from 121 mmHg to 119 mmHg at the time of patient discharge, and then to 117 mmHg after 30 days.

[3] = average of 15 treatment group patients, average therapy timespan 31 h
[4] = individual patient, over that patient's therapy timespan, Lasix plus hydration fluid
[5] = normalized over a 24-hour period

SMILES: NS(=O)(=O)c1cc(C(=O)O)c(NCc2ccco2)cc1Cl [Lasix, Furosemide]
- decrease of average net sodium balance ([1]; all treatment group patients, over the therapy timespan): ~800 mmol
- Net Fluid Loss (including oral fluid intake), average [1, 3]: −5,919 ml
- Net Fluid Loss (not including oral fluid intake), average [1, 3]: −6,948 ml
- Total Urine, average [1, 3]: 12,744 ml
- Net Fluid Loss (including oral fluid intake) [1, 4]: −4,868 ml and −4,247 ml and −2,232 ml and −10,787 ml and −1,021 ml and −6,276 ml and −5,625 ml and −3,636 ml and −10,299 ml and −3,724 ml and −9,156 ml and −6,583 ml and −6,186 ml and −10,301 ml and −3,844 ml
- Net Fluid Loss (not including oral fluid intake) [1, 4]: −6,001 ml and −4,590 ml and −2,993 ml and −11,913 ml and −2,003 ml and −8,306 ml and −6,941 ml and −3,953 ml and −12,269 ml and −4,364 ml and −9,995 ml and −7,888 ml and −7,018 ml and −11,333 ml and −4,704 ml
- Total Urine [1, 4]: 14,158 ml and 11,456 ml and 6,329 ml and 19,728 ml and 3,726 ml and 12,966 ml and 12,179 ml and 6,496 ml and 20,184 ml and 8,328 ml and 17,784 ml and 14,629 ml and 12,930 ml and 21,155 ml and 9,162 ml
- average net fluid loss [1, 5]: approximately 5.4 L
- average net sodium balance [1, 5]: -14 g
- median net sodium balance [1, 5]: -15 g
- increase in net fluid loss relative to control group ([1]; treatment group vs conventional therapy (diuretic, no replacement hydration fluid), normalized 24-hour period): over 200%
- average weight loss ([1]; treatment group, after 30 days): 5.7 kg
- average weight loss ([1]; treatment group, at the time of patient discharge): 6.8 kg
- average net fluid loss (not including oral fluid intake) ([1]; treatment group, over an average therapy timespan of 31 hours): ~7 L
- patients who regained the weight lost during therapy or were readmitted for additional treatment ([1]; treatment group, over the 30 days): none
- average decrease of eGFR [2]: 1.6
- average increase in creatinine [2]: 0.11 mg/dL
- tolerability of the fluid therapy [2]: generally well tolerated
